Laboratory results from the supplement of paper PMC10307832.

Legend:
Test in all cases: relative viability (nuclei count vs DMSO), 5 days (fraction); higher = more cells survive
MLN4924 + Pictilisib = compound: NS(=O)(=O)OC[C@@H]1C[C@@H](n2ccc3c(N[C@H]4CCc5ccccc54)ncnc32)C[C@@H]1O [MLN4924] + CS(=O)(=O)N1CCN(Cc2cc3nc(-c4cccc5[nH]ncc45)nc(N4CCOCC4)c3s2)CC1 [Pictilisib] (partner 1 µM)
Method in brief: (§1)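 Lung cancer cell lines in 1536-well plates were dosed by pin tool the day after seeding, either with one drug alone or with a fixed anchor-drug dose plus five library-drug doses (not always all listed) in √10 steps. After 5 days, cells were fixed and their nuclei stained in one step (final 0.05% Triton X-100, 1% formaldehyde, 1 ug/ml Hoechst), then counted on 4× images. Relative viability is the nuclei count in treated wells divided by that in vehicle wells. Values are medians of duplicate plates.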

GSK126 + OSI-027 = compound: CC[C@H](C)N1C=C(C2=C(C=C(C=C21)C3=CN=C(C=C3)N4CCNCC4)C(=O)NCC5=C(C=C(NC5=O)C)C)C [GSK126] + COc1cccc2cc(-c3nc([C@H]4CC[C@H](C(=O)O)CC4)n4ncnc(N)c34)[nH]c12 [OSI-027] (partner 0.5 µM)
Method in brief: as §1

GSK126 + Olaparib = compound: CC[C@H](C)N1C=C(C2=C(C=C(C=C21)C3=CN=C(C=C3)N4CCNCC4)C(=O)NCC5=C(C=C(NC5=O)C)C)C [GSK126] + O=C(c1cc(Cc2n[nH]c(=O)c3ccccc23)ccc1F)N1CCN(C(=O)C2CC2)CC1 [Olaparib] (partner 8 µM)
Method in brief: as §1

MLN4924 + Olaparib = compound: NS(=O)(=O)OC[C@@H]1C[C@@H](n2ccc3c(N[C@H]4CCc5ccccc54)ncnc32)C[C@@H]1O [MLN4924] + O=C(c1cc(Cc2n[nH]c(=O)c3ccccc23)ccc1F)N1CCN(C(=O)C2CC2)CC1 [Olaparib] (partner 8 µM)
Method in brief: as §1

Row | Cell Line | relative viability (MLN4924 + Pictilisib; first compound 0.04 µM) | relative viability (MLN4924 + Pictilisib; first compound 0.1265 µM) | relative viability (MLN4924 + Pictilisib; first compound 0.4 µM) | relative viability (MLN4924 + Pictilisib; first compound 1.265 µM) | relative viability (MLN4924 + Pictilisib; first compound 4 µM) | relative viability (GSK126 + OSI-027; first compound 0.08 µM) | relative viability (GSK126 + OSI-027; first compound 0.253 µM) | relative viability (GSK126 + OSI-027; first compound 0.8 µM) | relative viability (GSK126 + OSI-027; first compound 2.53 µM) | relative viability (GSK126 + OSI-027; first compound 8 µM) | relative viability (GSK126 + Olaparib; first compound 0.08 µM) | relative viability (GSK126 + Olaparib; first compound 0.253 µM) | relative viability (GSK126 + Olaparib; first compound 0.8 µM) | relative viability (GSK126 + Olaparib; first compound 2.53 µM) | relative viability (GSK126 + Olaparib; first compound 8 µM) | relative viability (MLN4924 + Olaparib; first compound 0.04 µM) | relative viability (MLN4924 + Olaparib; first compound 0.1265 µM) | relative viability (MLN4924 + Olaparib; first compound 0.4 µM) | relative viability (MLN4924 + Olaparib; first compound 1.265 µM) | relative viability (MLN4924 + Olaparib; first compound 4 µM)
1 | NCI-H2085 | 0.479 | 0.719 | 0.594 | 0.457 | 0.42 | 0.919 | 0.716 | 0.839 | 0.683 | 0.812 | 0.77 | 0.784 | 0.764 | 0.771 | 0.762 | 0.837 | 0.747 | 0.868 | 0.485 | 0.363
2 | NCI-H650 | 0.79 | 0.508 | 0.335 | 0.208 | 0.214 | 0.49 | 0.529 | 0.489 | 0.497 | 0.583 | 0.446 | 0.373 | 0.363 | 0.405 | 0.389 | 0.244 | 0.159 | 0.17 | 0.137 | 0.129
3 | NCI-H2170 | 0.36 | 0.37 | 0.217 | 0.135 | 0.171 | 0.809 | 0.817 | 0.712 | 0.749 | 0.737 | 0.603 | 0.669 | 0.559 | 0.54 | 0.529 | 0.413 | 0.229 | 0.195 | 0.148 | 0.113
4 | LC-2-ad | 0.122 | 0.427 | 0.39 | 0.143 | 0.116 | 1.02 | 0.868 | 0.902 | 0.862 | 0.985 | 0.703 | 0.698 | 0.67 | 0.712 | 0.357 | 0.68 | 0.53 | 0.335 | 0.269 | 0.197
